In patent US11813235B2, “Guanfacine as an anti-virulence agent” (priority 2019, dated 2023):
Where two headings read alike, the source gives them in different places. *1 amine or outer side, *2 acyl side, *3 side chain or, on linkers, in order; H or OH if unused. Where a SMILES comes first, the peptide text is derived from it. Bridges are numbered along the chain shown (N, C = ends). [ ]: non-standard residue; d: D form. The star is where a group is joined. hTyr(3S-OH,4S-OH,3'-OSO3H) = N[C@H](C(=O)O)[C@H](O)[C@@H](O)c1ccc(O)c(OS(=O)(=O)O)c1; Orn(4R-OH,5R-OH) = O=C([C@H](C[C@@H](O)[C@@H](O)N[*:3])N[*:1])[*:2]; Pro(3S-OH,4S-Me) = C[C@H]1CN[C@H](C(=O)O)[C@H]1O; X1 = CCCCCOc1ccc(-c2cc(-c3ccc(C(=O)*)cc3)no2)cc1; Gln(3R-OH) = NC(=O)C[C@@H](O)[C@H](N)C(=O)O; Hyp = O=C(O)[C@@H]1C[C@@H](O)CN1

Tests used:
[1] = tested on: P. aeruginosa; format: cell-based, Pseudomonas aeruginosa
Protocol: Growth and high-throughput LacZ assays were optimized in a 384-well plate format using three reporter strains In order to identify down-regulators of virulence, rather than growth-inhibitors of P. aeruginosa, special care was taken to eliminate compounds that (i) interfered with the LacZ assay and (ii) affected P. aeruginosa growth. […] Growth-inhibition assays using the small molecule library were performed by monitoring optical density at 600 nm (OD600 nm).
(§6) In various examples, bacterial growth was carried out in LB supplemented with 50 mM Mops, pH 7.0 (hereafter, LB-Mops). To commence a screen, a P. aeruginosa reporter strain from an LB agar plate was used to inoculate 5 mL of LB-Mops medium in a sterile 14-mL bacterial culture tube. The culture was grown for 4 h at 30° C./250 rpm. After 4 h, its optical density (OD600 nm) was determined on a Cary 60 UV-visible spectrophotometer (Agilent). The culture was diluted into 100 mL of LB-Mops to give a final OD600 nm of 0.05. Subsequently a volume of 50 μL was dispensed into each of six sterile, 384 well plates (Corning) using a Multiflo Microplate Dispenser (Biotek). Candidate elicitors were added to the plates using a CyBi-Well automated liquid transfer robot (CyBio). Each well was supplemented with 0.2 μL of a compound from the Enzo Scientific FDA approved drug library, which comprises 770 molecules. The compounds were dispensed into columns 3 through 22 on each plate. Columns 2 and 23 contained the negative control (the reporter strain being tested in the absence of any compounds), and columns 1 and 24 contained the positive control (e.g., strain phzB2-lacZ). Each compound was tested in duplicate, using three 384-well plates per set. Each plate was covered with a Breathe-Easy sealing membrane (Sigma) and cultured at 30° C./250 rpm in a Multitron Shaker (ATR) equipped with green sealing tray. To maintain constant humidity, several 1-L Erlenmeyer flasks containing 200 mL of sterile water were also placed inside the shaker. After 12 h, the plates were removed from the shaker. The β-Glo reagent (Promega) was used to monitor LacZ activity. The reagent was diluted 3:1 with water. Then each well was supplemented with 15 μL of the diluted β-Glo reagent using the Multiflo automated dispenser, manually shaken to mix, and incubated in the dark at room temperature for 10 min. Total end-point luminescence was then determined on a Synergy H1MF plate reader (Biotek).

[2] = tested on: P. aeruginosa phzF1-lacZ strain; assay: Dose-dependent growth inhibition of phzF1-lacZ strain by antibiotics; format: cell-based
[3] = tested on: virulence factor expression (seven lacZ reporter strains); format: cell-based, Pseudomonas aeruginosa
Source text: Seven reporter strains from the sequence-verified transposon mutant library generated by Manoil and colleagues were identified, in which transposons carrying a promoterless lacZ reporter were inserted into the genome of P. aeruginosa. The strains selected carried an in-frame lacZ reporter in aprD (alkaline protease), pqsA (PQS biosynthesis), hcnB (HCN biosynthesis), algK (alginate biosynthesis), phzB2 and phzF1 (phenazine biosynthesis from two different gene clusters), and plcH (phospholipase C). […] By carrying out an ex vivo LacZ assay, all LacZ assay inhibitors in a library of small molecules were identified. Growth-inhibition assays using the small molecule library were performed by monitoring optical density at 600 nm (OD600 nm).
After a defined growth period, the expression of each of the seven reporter strains was determined using high-throughput LacZ assays. The LacZ activity was normalized relative to the negative control. The log10 of the fold-change for each of the seven strains were combined and colorized to produce an anti-virulence heat-map.
as §6

[4] = tested on: phzF1-lacZ; assay: microbe, parasite or virus in culture; format: cell-based
[5] = tested on: pelB-lacZ; assay: pelB-lacZ reporter dose-response; format: cell-based, Pseudomonas aeruginosa
Source text: (§1) FIG. 3F is a graph of the dose-response of the expression of pelG and pelB, involved in biofilm production, as a function of guanfacine concentration, using the appropriate LacZ reporter strain.
(§2) Another important virulence determinant in P. aeruginosa is biofilm formation. A cluster of genes, termed pel regulated by the las QS system, have been established as responsible for producing the biofilm matrix exopolysaccharide. Two reporter strains carrying translational lacZ fusions (pelB-lacZ and pelG-lacZ) were subjected to guanfacine dose-response analysis. […].
(§3) Assays were carried out in 50 mL Erlenmeyer flasks containing 10 mL of LB-Mops. For LacZ assays, an appropriate reporter strain from an LB agar plate was used to inoculate 5 mL of LB-Mops in a sterile 14 mL bacterial culture tube. After 4 h, OD600 nm was determined, and the culture subsequently diluted to an initial OD600 nm of 0.05 in a 50 mL Erlenmeyer flask. The compound of interest was added from stock concentrations generated in DMSO. A control containing only DMSO was also included. Assays were typically carried out in three biological replicates. […] End-point luminescence was determined on a Biotek H1MF plate reader. To obtain IC50 values, the averaged luminescence output (used to determine LacZ activity) was plotted against the log of the concentration of the inhibitor. […]

[6] = tested on: pyocyanin biosynthesis; assay: Pyocyanin quantification; format: cell-based, Pseudomonas aeruginosa; conditions: treated vs untreated cultures, concentration-dependent
Source text: FIG. 3C is a graph showing the dose-dependent reduction of pyocynanin biosynthesis as a function of guanfacine concentration.
The effects of guanfacine were probed further by measuring the levels of pyocyanin, a downstream product of phenazine. Pyocyanin is the blue secondary metabolite responsible for both the toxicity and characteristic color of P. aeruginosa. […]. Without being bound to a particular theory, the likely cause of the incomplete suppression of pyocyanin synthesis is the existence of two independently-expressed copies of the phenazine biosynthetic operon. Nonetheless, the direct measurement of pyocyanin corroborates results observed with the reporter strains. The production of both phenazines and pyocyanin is known to be regulated by the las and pqs QS circuits. Specifically, in response to 3O-C12-HSL, LasR induces expression of the pqs operon and the LysR-type regulator, PqsR. The PQS/PqsR complex then activates phenazine and pyocyanin synthesis. To verify that guanfacine acts upstream of both products, levels of quinolines were directly measured. […].
(§4) Pyocyanin quantification. Pyocyanin quantification was carried by a method adapted from Essar et al.[17] […] 120 μL of this extract was transferred to a clear 96-well plate and the OD520 nm was recorded using a plate reader. […]

[7] = tested on: phzB2-lacZ; assay: phzB2-lacZ reporter dose-response; format: cell-based; conditions: Pseudomonas aeruginosa, read-out: IC50, concentration at which half-maximal down-regulation was observed (phzB2 reporter)
Protocol: FIG. 3B is a graph showing the dose-response of phzB2-lacZ as a function of guanfacine concentration.
Assays were carried out in 50 mL Erlenmeyer flasks containing 10 mL of LB-Mops. For LacZ assays, an appropriate reporter strain from an LB agar plate was used to inoculate 5 mL of LB-Mops in a sterile 14 mL bacterial culture tube. After 4 h, OD600 nm was determined, and the culture subsequently diluted to an initial OD600 nm of 0.05 in a 50 mL Erlenmeyer flask. The compound of interest was added from stock concentrations generated in DMSO. A control containing only DMSO was also included. Assays were typically carried out in three biological replicates. A positive control culture, phzB2-lacZ in the absence of any compounds, was grown in parallel as well. The cultures were grown at 30° C./200 rpm. After 12 h, 65 μL was removed from each culture flask and dispensed into a sterile, white 96-well plate (Corning). Each well was supplemented with 35 μL of 3:1 diluted β-Glo reagent (Promega). The plate was incubated in the dark at room temperature for 10 minutes. End-point luminescence was determined on a Biotek H1MF plate reader. To obtain IC50 values, the averaged luminescence output (used to determine LacZ activity) was plotted against the log of the concentration of the inhibitor. The data were fit to a dose-response curve using GraphPad Prism software.

[8] = tested on: P. aeruginosa; assay: Growth curve of P. aeruginosa in absence and presence of guanfacine; format: cell-based, Pseudomonas aeruginosa; conditions: 10, 20, 40 and 80 μM guanfacine
Protocol: FIG. 2 is a graph showing the growth curve of P. aeruginosa in the absence (DMSO) and presence of guanfacine in various concentrations (10 μM, 20 μM, 40 μM, and 80 μM).

[9] = tested on: seven virulence genes (aprD, pqsA, hcnB, algK, phzB2, phzF1, plcH lacZ reporters); assay: LacZ assay in flask cultures, seven virulence reporter strains; format: cell-based, Pseudomonas aeruginosa; conditions: relative to untreated control
Source text: FIG. 3A is a graph showing the transcriptional down-regulation of seven virulence genes by guanfacine relative to an untreated control.
The effect of guanfacine on the expression of virulence factors was verified in flask cultures. […].
In one example, reporter genes for the various virulence factors encoded in the P. aeruginosa genome were selected. Seven reporter strains from the sequence-verified transposon mutant library generated by Manoil and colleagues were identified, in which transposons carrying a promoterless lacZ reporter were inserted into the genome of P. aeruginosa. The strains selected carried an in-frame lacZ reporter in aprD (alkaline protease), pqsA (PQS biosynthesis), hcnB (HCN biosynthesis), algK (alginate biosynthesis), phzB2 and phzF1 (phenazine biosynthesis from two different gene clusters), and plcH (phospholipase C). […]
Assays were carried out in 50 mL Erlenmeyer flasks containing 10 mL of LB-Mops. […] After 4 h, OD600 nm was determined, and the culture subsequently diluted to an initial OD600 nm of 0.05 in a 50 mL Erlenmeyer flask. […] End-point luminescence was determined on a Biotek H1MF plate reader. To obtain IC50 values, the averaged luminescence output (used to determine LacZ activity) was plotted against the log of the concentration of the inhibitor. […]

[10] = tested on: pelG-lacZ; assay: pelG-lacZ reporter dose-response; format: cell-based, Pseudomonas aeruginosa
Source text: as §1, §2, §3

[11] = tested on: HHQ and PQS production; assay: HPLC-MS quantification of HHQ and PQS in wt P. aeruginosa; format: cell-based, Pseudomonas aeruginosa
Protocol: FIG. 3D is a graph showing the relative quantification of HHQ and PQS produced by wt P. aeruginosa as a function of guanfacine concentration, normalized to an untreated control.
[…]. This HPLC analysis of cell-free supernatants of P. aeruginosa in the absence (solid lines) or presence (dashed lines) of 40 μM guanfacine. Peaks corresponding to HHQ and PQS are labeled, peaks of other quinolones are indicated with an asterisk.
The effects of guanfacine were probed further by measuring the levels of pyocyanin, a downstream product of phenazine. Pyocyanin is the blue secondary metabolite responsible for both the toxicity and characteristic color of P. aeruginosa. […]. […] To verify that guanfacine acts upstream of both products, levels of quinolines were directly measured. […]
(§5) HPLC-MS analysis. Direct detection and quantification of HHQ and PQS was carried out by growing wt P. aeruginosa under identical conditions as described above (for growth in 50 mL Erlenmeyer flasks). […] The organic layer was separated, dried completely in a speedvac concentrator, resuspended in 0.5 mL of MeOH, and analysed on an Agilent HPLC-MS consisting of a liquid autosampler, a 1260 Infinity Series HPLC system coupled to a photodiode array detector and a 6120 Series ESI mass spectrometer. […]

[12] = tested on: pmrB::Tn mutant (QseC homolog); assay: HHQ and pyocyanin production in pmrB::Tn mutant; format: cell-based, Pseudomonas aeruginosa; conditions: pmrB::Tn cultures supplemented with guanfacine
Protocol: FIG. 4 is a graph of the quantification of the levels of HHQ (black bars) and pyocyanin (white bars) in guanfacine-treated and untreated cultures.
To explore this idea, a mutant carrying a transposon insertion in pmrB (pmrB::Tn) was tested. Both wt and mutant strains were grown in the presence of guanfacine or DMSO (control), and the production of HHQ was quantified directly using HPLC-MS, while pyocyanin synthesis was assessed as previously reported. […] In the absence of the sensor His kinase, guanfacine was unable to exert its down-regulatory effect, especially with pyocyanin where significant production remained.
as §5, §4

[13] = relative to the untreated strain, OD600 nm after 12 h
[14] = Pseudomonas aeruginosa, PHZF1LACZSTRAIN; read-out: growth-inhibitory IC50
[15] = LacZ activity normalized to negative control, seven reporter strains
[16] = Pseudomonas aeruginosa; read-out: EC50, concentration at which induction of phzF1-lacZ was half-maximal

O=C(N[C@H](CO)[C@H](O)c1ccc([N+](=O)[O-])cc1)C(Cl)Cl [Chloramphenicol]
% Growth Inhibition [1, 13]: 64%

[H]/N=C(\N/C(=N/[H])NCCCCCCNC(=N)NC(=N)Nc1ccc(Cl)cc1)Nc1ccc(Cl)cc1 [Chlorhexidine]
% Growth Inhibition [1, 13]: 96%

C[C@]12CC[C@@H]3c4ccc(O)cc4CC[C@H]3[C@@H]1CC[C@@H]2O [Estradiol]
% Growth Inhibition [1, 13]: 73%

CCCCCCCCc1ccc(CCC(N)(CO)CO)cc1 [Fingolimod]
% Growth Inhibition [1, 13]: 76%

CCCCCOc1ccc(-c2cc(-c3ccc(C(=O)N[C@H]4C[C@@H](O)[C@@H](O)NC(=O)[C@@H]5[C@@H](O)[C@@H](C)CN5C(=O)[C@H]([C@H](O)CC(N)=O)NC(=O)[C@H]([C@H](O)[C@@H](O)c5ccc(O)c(OS(=O)(=O)O)c5)NC(=O)[C@@H]5C[C@@H](O)CN5C(=O)[C@H]([C@@H](C)O)NC4=O)cc3)no2)cc1 [Micafungin] (X1-[Orn(4R-OH,5R-OH)]T[Hyp][hTyr(3S-OH,4S-OH,3'-OSO3H)][Gln(3R-OH)][Pro(3S-OH,4S-Me)]; lactam 1-C)
% Growth Inhibition [1, 13]: 54%

CCN1CCN(C(=O)N[C@@H](C(=O)N[C@@H]2C(=O)N3[C@@H]2SC(C)(C)[C@@H]3C(=O)O)c2ccccc2)C(=O)C1=O [Piperacillin]
IC50 [2, 14]: 6.4 µM
effect on virulence factor expression in screen [3, 15]: further enhance the expression of virulence factors
EC50 [4, 16]: 8.4 µM

CC/C(=C(\c1ccccc1)c1ccc(OCCN(C)C)cc1)c1ccccc1 [Tamoxifen]
% Growth Inhibition [1]: 57%

COc1cc(Cc2cnc(N)nc2N)cc(OC)c1OC [Trimethoprim]
% Growth Inhibition [1]: 73%

CN1CCc2cccc3c2[C@H]1Cc1ccc(O)c(O)c1-3 [apomorphine]
effect on virulence factor expression in screen [3]: A similar effect

CO/N=C(\C(=O)N[C@@H]1C(=O)N2C(C(=O)O)=C(C[N+]3(C)CCCC3)CS[C@H]12)c1csc(N)n1 [cefepime]
IC50 [2, 14]: 4.6 µM

C/C=C/C1=C(C(=O)O)N2C(=O)[C@@H](NC(=O)[C@H](N)c3ccc(O)cc3)[C@H]2SC1 [cefprozil]
IC50 ([2]; Pseudomonas aeruginosa, PHZF1LACZSTRAIN, read-out: growth-inhibitory IC50): 362 µM
EC50 ([4]; Pseudomonas aeruginosa, read-out: EC50, concentration at which induction of phzF1-lacZ was half-maximal): 58 µM

CC(C)(O/N=C(\C(=O)N[C@@H]1C(=O)N2C(C(=O)O)=C(C[n+]3ccccc3)CS[C@H]12)c1csc(N)n1)C(=O)O [ceftazidime]
IC50 [2, 14]: 53 µM
EC50 [4, 16]: 21 µM

N=C(N)NC(=O)Cc1c(Cl)cccc1Cl [guanfacine]
suppression of pelB expression ([5]; 80 μM guanfacine): Nearly complete suppression
IC50 ([5]; Pseudomonas aeruginosa, pelB-lacZ): 5.8 µM
reduction in the levels of pyocyanin [6]: 1.5 fold
IC50 [7]: 19 µM
growth inhibition (growth curve versus DMSO control) [8]: not growth-inhibitory
reduction of reporter expression across seven reporter strains [9]: 2-9 fold
suppression of pelG expression ([10]; 80 μM guanfacine): Nearly complete suppression
IC50 ([10]; Pseudomonas aeruginosa, pelG-lacZ): 3.1 µM
effect on virulence factor expression in screen [3, 15]: A similar effect
levels of HHQ, PQS and several other quinolines [11]: decreased levels
fold less PQS relative to DMSO-treated control ([11]; 40 μM guanfacine): 4.5 fold
effect on HHQ and pyocyanin production in pmrB::Tn cultures [12]: no further effect

CC(C)Cc1ccc(C(C)C(=O)O)cc1 (stereo not drawn) [ibuprofen]
effect on virulence factor expression in screen [3, 15]: down-regulated virulence factor expression

CC(C(=O)O)c1cccc(C(=O)c2ccccc2)c1 (stereo not drawn) [ketoprofen]
effect on virulence factor expression in screen [3]: down-regulated virulence factor expression

COc1ccc2cc([C@H](C)C(=O)O)ccc2c1 [naproxen]
effect on virulence factor expression in screen [3]: down-regulated virulence factor expression

Cc1ccc(C(=O)c2cc(O)c(O)c([N+](=O)[O-])c2)cc1 [tolcapone]
effect on virulence factor expression in screen [3, 15]: A similar effect

Colistin
% Growth Inhibition [1, 13]: 96%
